In PubChem BioAssay AID1963444 (Molecular Pharmacology Branch, DTP, NCI, 2024):
pIC50: −log10 of the molar value. “And” between values parts separate entries of the source, which are not always exact repeats. Equal values may be shown once.

Tested on: HSSY-II complex spheroid growth, percent test/control
Assay: Anticancer human tumor HSSY-II cell line growth inhibition [Asc];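 also: spheroids exposed to drug for 7 days before reading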
Settings: for viability, T/C: stronger effect = lower value
Description: Multicellular complex tumor spheroid response to apoptosis pathway targeting inhibitors Alrizomadlin, Pelcitoclax, and Dasminapant in combination with a variety of drugs and investigational agents in selected tumor cell lines
The MDM2 inhibitor alrizomadlin, the Bcl-2/Bcl-xL inhibitor pelcitoclax, and the IAPs inhibitor dasminapant were evaluated both individually and in combination with standard of care and investigational anticancer small molecules within a complex spheroid model of solid tumors. . Complex spheroids include a stromal component modeled by human endothelial cells (HUVEC) and fibroblasts modeled by human mesenchymal stem cells (MSCs). The concentration ranges selected for each drug and investigational agent were based upon clinically achievable concentrations if the clinical Cmax of the agent was known.
Compounds. The drugs and investigational agents: alrizomadlin (APG-115; NSC831270), pelcitoclax (APG-1252; NSC835773), dasminapant (APG-1387;NSC834197), TAK-243 (NSC785004), copanlisib (NSC809693), olaparib (NSC753686), talazoparib (NSC767125), cobimetinib (NSC 768068), eltanexor (KPT-8602, NSC 794443), abemaciclib (NSC 768073), sotorasib (NSC818433), adagrasib (NSC 831453), MRTX-1133 (NSC 836407), Iadademestat (ORY1001, NSC 806812), and RMC-4630 (NSC839698), were obtained from the NCI Developmental Therapeutics Program Chemical Repository. The FDA-approved anticancer drug set is available from the Developmental Therapeutics Program at https://dtp.cancer.gov/organization/dscb/obtaining/available plates.htm. […] The stock solutions were prepared in dimethyl sulfoxide (DMSO, Sigma-Aldrich, St. Louis, MO, cat. D2650) at 800-fold the tested concentration and stored at -70 degrees C prior to their use. All drugs and investigational agents were tested over a range starting from a high concentration at or near the clinical Cmax and decreasing in half-log increments. If the clinical Cmax for an agent had not been determined, the highest concentration tested was 10 microM.
The patient-derived cancer (PDC) cell lines include five colon adenocarcinomas: 186277-243-T-J2-PDC, 616215-338-R-J1-PDC, 439559-082-T-J2-PDC, 463943-066-T-J2-PDC, and 519858-162-T-J1-PDC; three pancreatic carcinomas: 323965-272-R-J2-PDC, 521955-158-R6-J3-PDC, and 521955-158-R2-J5-PDC; two uterine sarcomas: 327498-152-R-J2-PDC and 993429-296-R-J1-PDC; two rhabdomyosarcomas: 755483-174-R-J1-PDC and 772245-204-R-J1-PDC; two soft tissue sarcomas: 126254-015-R-J1-PDC and 494315-158-R-J1-PDC; two malignant fibrous histiocytomas: 317291-083-R-J1-PDC and 596521-263-R-J1-PDC; two breast carcinomas: 171881-019-R-J1-PDC and 885512-296-R-J2-PDC; and one ovarian carcinoma: 6556581-035-R-J-PDC were obtained from the NCI PDMR, (https://pdmr.cancer.gov). The established cell lines HSSY-2 synovial sarcoma (RRID:CVCL 8719), SYO-1 synovial sarcoma (RRID:CVCL_7146), MPNST malignant peripheral neural sheath tumor were obtained from the Sloan Kettering Institute. The following established cell lines were purchased from the American Type Culture Collection (ATCC, Manassas, VA), Sor the received from the NCI repository:, PANC-1 pancreatic carcinoma (CRL-1469, RRID:CVCL_0480), OVCAR-5 ovarian carcinoma (RRID:CVCL_1628), OVCAR-8 ovarian carcinoma (RRID:CVCL_1629), , MCF-7 breast carcinoma (CRL-12584, RRID:CVCL_0031), MDA-MB-231 breast carcinoma (CRL-12532, RRID:CVCL_0062), NCI-H1876 small cell lung carcinoma (CRL-5902, RRID:CVCL_1503), NCI-H510A small cell lung carcinoma (HTB-184, RRID:CVCL_1565), NCI-H1417 (CRL-5869, RRID:CVCL_1469), and NCI-H196 small cell lung carcinoma (CRL-5823, RRID:CVCL_1509). Dr. Peter Houghton (Greehey Children's Cancer Research Institute, University of Texas Health Science Center, San Antonio, TX) provided Rh-18 rhabdomyosarcoma (RRID:CVCL_1659). Pooled donor human umbilical vein endothelial cells (HUVEC, Lonza, cat. CC-2519) and human mesenchymal stem cells (hMSC, Lonza, cat. PT-2501) were purchased from Lonza (Walkersville, MD).
Cell Culture. […]

[1] = compound alone, run of 10/11/2022

Structure (SMILES) | viability, T/C (compound 0.0316 µM) | viability, T/C (compound 0.1 µM) | viability, T/C (compound 0.316 µM) | viability, T/C (compound 1 µM) | pIC50 (curve of compound) | viability, T/C (compound 0.00316 µM) | viability, T/C (compound 0.01 µM) | also measured
C#Cc1c(F)ccc2cc(O)cc(-c3ncc4c(N5CC6CCC(C5)N6)nc(OCC56CCCN5CC(F)C6)nc4c3F)c12 (stereo unspecified) | 97.9% and 106% and 112% | 101% and 94.9% and 106% | 97.4% and 92.7% and 94% | 105% and 102% and 90.2% | < 5.00 and 5.05 |  |  | viability, T/C (compound 3.16 µM): 91.3% and 93.7% and 92.3%; viability, T/C (compound 10 µM): 74.2% and 53.3% and 44.5%
C=C(F)C(=O)N1CCN(c2nc(OCC3CCCN3C)nc3c2CCN(c2cccc4cccc(Cl)c24)C3)CC1CC#N (stereo unspecified) | 102% and 104% and 97.2% | 100% and 111% and 98.8% | 89.8% and 89.1% and 90.5% | 70.2% and 80.1% and 70% | 5.84 and 5.80 and 5.85 |  |  | viability, T/C (compound 3.16 µM): 5.2% and 4.65% and 3.69%; viability, T/C (compound 10 µM): 0.22% and 0.2% and 0.21%
C=CC(=O)N1CCN(c2nc(=O)n(-c3c(C)ccnc3C(C)C)c3nc(-c4c(O)cccc4F)c(F)cc23)C(C)C1 (stereo unspecified) | 107% and 90.9% and 100% | 108% and 97.8% and 106% | 106% and 100% and 99.8% | 106% and 105% and 102% | < 5.00 |  |  | viability, T/C (compound 3.16 µM): 95.8% and 106% and 103%; viability, T/C (compound 10 µM): 66.7% and 56.7% and 70.2%
CCN1C(C(=O)NC23CCC(C(=O)O)(CC2)CC3)C(c2cccc(Cl)c2F)C2(C(=O)Nc3cc(Cl)ccc32)C12CCCCC2 (stereo unspecified) |  |  |  |  | 6.88 and 6.87 |  |  | viability, T/C (compound 0.00949 µM): 99.7% and 101%; viability, T/C (compound 0.03 µM): 89.3% [middle of 15 runs]; viability, T/C (compound 0.0949 µM): 62.1% [middle of 15 runs]; viability, T/C (compound 0.3 µM): 27% [middle of 15 runs]; viability, T/C (compound 0.949 µM): 8.58% [middle of 15 runs]; viability, T/C (compound 3 µM): 2.55% [middle of 15 runs]; IC50 [1]: 143 nM [middle of 12 runs]
CCN1CCN(Cc2ccc(Nc3ncc(F)c(-c4cc(F)c5nc(C)n(C(C)C)c5c4)n3)nc2)CC1 | 65.6% and 73.6% and 78.9% | 59.6% and 44.7% and 74.7% | 49.6% and 35.2% and 46.9% | 27.2% and 30.8% and 28.5% | 6.70 and 7.09 and 6.48 | 102% and 74.4% and 98.4% | 94.4% and 70.5% and 78.7% | 
CNC(C)C(=O)NC1CN(S(=O)(=O)c2cccc(S(=O)(=O)N3CCC4CCC(C(=O)NC(c5ccccc5)c5ccccc5)N4C(=O)C(NC(=O)C(C)NC)C3)c2)CCC2CCC(C(=O)NC(c3ccccc3)c3ccccc3)N2C1=O (stereo unspecified) | 89.1% [middle of 14 runs] |  |  |  | < 6.00 | 102% and 96.8% and 85% |  | pIC50 (compound alone, run of 10/24/2022): < 6.00; pIC50 (compound alone, run of 11/15/2022): < 6.00
COc1c(OCCCN2CCOCC2)ccc2c3n(c(=NC(=O)c4cnc(N)nc4)nc12)CCN3 | 49.7% and 56.5% and 61.6% | 32.7% and 39.2% and 46.4% | 23.3% and 23.6% and 26.9% | 13.1% and 13.5% and 11.5% | 7.43 and 7.27 and 7.14 | 91.6% and 98.3% and 96.8% | 79.1% and 86.2% and 79.5% | 
Cc1c(S(C)(=O)=O)c(-c2cc(F)cc(N3CCN(c4ccc(NS(=O)(=O)c5ccc(NC(CCN6CCC(C(=O)OCCCP(=O)(O)O)CC6)CSc6ccccc6)c(S(=O)(=O)C(F)(F)F)c5)cc4)CC3)c2)c(-c2ccc(Cl)cc2)n1C(C)C (stereo unspecified) |  |  |  |  |  |  |  | pIC50 [1]: < 5.00 and 5.58
Cc1nc(N2CCC3(CC2)COC(C)C3N)c(CO)nc1Sc1ccnc(N)c1Cl (stereo unspecified) |  |  |  |  | < 5.52 |  |  | viability, T/C (compound 0.00949 µM): 96.6% and 103% and 111%; viability, T/C (compound 0.03 µM): 96.7% and 113% and 106%; viability, T/C (compound 0.0949 µM): 96.6% and 108% and 102%; viability, T/C (compound 0.3 µM): 99.3% and 106% and 105%; viability, T/C (compound 0.949 µM): 91.7% (2×) and 88.5%; viability, T/C (compound 3 µM): 67.1% and 75.8% and 68.5%
Cn1ncnc1[C@H]1c2n[nH]c(=O)c3cc(F)cc(c23)N[C@@H]1c1ccc(F)cc1 | 57.3% and 55.5% and 65.2% | 25.6% and 69.3% and 22.8% |  |  | 7.41 and < 7.00 and 7.37 | 90.7% and 96% and 83.2% | 70.8% and 84.3% and 72.3% | viability, T/C (compound 0.000316 µM): 93.9% and 100% and 96.2%; viability, T/C (compound 0.001 µM): 94.1% and 95.6% and 96.7%
NC(=O)C(=Cn1cnc(-c2cc(C(F)(F)F)cc(C(F)(F)F)c2)n1)c1cncnc1 |  |  |  |  | 7.62 and 7.78 and 7.75 |  |  | viability, T/C (compound 0.000949 µM): 97.2% and 85.3% and 90.9%; viability, T/C (compound 0.003 µM): 94.1% and 76.9% and 88.4%; viability, T/C (compound 0.00949 µM): 67.6% and 69.8% and 61.6%; viability, T/C (compound 0.03 µM): 46.4% and 29.8% and 40.1%; viability, T/C (compound 0.0949 µM): 18.6% and 11.1% and 9.98%; viability, T/C (compound 0.3 µM): 1.34% and 1.15% and 1.13%
NC1CCC(NC2CC2c2ccccc2)CC1 (stereo unspecified) | 61% and 59.4% and 54.2% | 59.8% and 53.7% and 49.7% |  |  | < 7.00 | 58.7% and 61.8% and 52.4% | 53.8% and 56.1% and 47% | viability, T/C (compound 0.000316 µM): 71.8% and 62.3% and 60.2%; viability, T/C (compound 0.001 µM): 68.3% and 66.5% and 58.3%
O=C(c1cc(Cc2n[nH]c(=O)c3ccccc23)ccc1F)N1CCN(C(=O)C2CC2)CC1 | 87.4% and 98% and 105% | 90.4% and 103% and 91.2% | 86.4% and 63% and 94.2% | 78.5% and 87.6% and 98.6% | 5.55 and 5.45 and 5.40 |  |  | viability, T/C (compound 3.16 µM): 46.7% and 54.1% and 59.5%; viability, T/C (compound 10 µM): 15.5% and 12.1% and 11.8%
O=C(c1ccc(F)c(F)c1Nc1ccc(I)cc1F)N1CC(O)([C@@H]2CCCCN2)C1 | 83.1% and 103% and 102% | 92.8% and 102% and 122% | 73.6% and 74.8% and 78.3% | 19.4% and 25.9% and 26% | 6.28 and 6.25 and 6.23 | 97.1% and 106% and 100% | 99.7% and 107% and 102% | 
